This note sets out measurements from US20200031820A1, “3-CARBOXYLIC ACID PYRROLES AS NRF2 REGULATORS” (GLSXOSMITHKLINE INTELLECTUAL PROPERTY DEVELOPMENT LIMITED, priority 2016, published 2020).

The experiment addresses T1, Keap1 (321-609) Kelch domain / TAMRA-labeled 16mer NRF2 peptide (ETGE motif) (Homo sapiens, UniProt Q14145).
T1 construct: the Kelch domain (321-609) of Keap1 is used
Kind of experiment: NRF2-Keap1 FP Assay. Type of experiment: binding. The note with it: 20 nM Keap1 (321-609), 8 nM Tamra labeled peptide. The source says:
One model for the NRF2-Keap1 interaction is through two binding sites in the Neh2 domain on NRF2. The two sites are referred to as the DLG binding motif (latch domain, uM affinity) and the ETGE binding motif (hinge domain, nM affinity). The Keap1 protein consists of an N-terminal region (NTR), a broad complex, tramtrack, and brick a'brac domain (BTB), an intervening region (IVR), a double glycine repeat domain (DGR or Kelch), and a C-terminal region. The DLG and ETGE motifs of NRF2's Neh2 domain bind to the Kelch domain of Keap1 at different affinities. In the Keap1 Kelch fluorescence polarization (FP) assay, a TAMRA-labeled 16mer peptide (AFFAQLQLDEETGEFL) containing the ETGE motif of NRF2 and the Kelch domain (321-609) of Keap1 is used. The assay determines if a compound interferes with the binding between Keap1 […] and the TAMRA-labeled peptide. Binding of TAMRA-labeled NRF2 peptide to Keap1 (321-609) results in a high FP signal. If a compound interferes with the binding between the peptide and the protein, it will cause the assay signal to decrease. Thus, assay signal is inversely proportional to binding inhibition.
100 nl of 100× compound dose response curves (serial 3-fold dilutions) in DMSO were stamped using an Echo liquid handling system (Labcyte) into 384-well low volume black assay plates (Greiner, #784076), with DMSO in columns 6 and 18. The top concentration of compound was located in columns 1 and 13. Keap1 (321-609) was diluted to 40 nM (2×) in 1× assay buffer (50 mM Tris, pH 8.0, 100 mM NaCl, 5 mM MgCl2, 1 mM DTT, 2 mM CHAPS, and 0.005% BSA) and 5 ul was added using a Multidrop Combi (Thermo Electron Corporation) equipped with a metal tip dispenser to all wells of the compound plate, except column 18. Column 18 received only 5 ul of assay buffer. Immediately, 5 uL of 16 nM (2×) of Tamra labeled peptide (AFFAQLQLDEETGEFL, 21st Century Biochemicals) was added to all wells of the plate. The plates were spun at 500 rpm for 1 min, incubated for 1 hr at room temperature, and read on an Analyst GT (Molecular Devices) equipped with excitation (530/25 nm) and emission (580/10 nm) filters designed for Tamra probes. A 561 nm dichroic mirror was also used in the Analyst. The final assay concentrations of Keap1 (321-609) and Tamra labeled peptide were 20 nM and 8 nM, respectively. Fluorescence measurements, represented as mP, were used in the transformation of the data. Compound activity was calculated based on percent inhibition, normalized against controls in the assay (Control 1 contains the Tamra peptide and Keap1 (321-609) together (0% response) and control 2 contains the Tamra peptide alone (100% response)). Data analysis was handled using the software package Abase XE (Surrey, United Kingdom. The % inhibition values were calculated by the equation:
100−(100*((compound response−average control 2)/(average control 1−average control2))). For calculation of pIC50s, Abase XE uses a four parameter equation.
IC50s<1 nM (+++++), IC50s 1 nM-10 nM (++++), IC50s 10-100 nM (+++), IC50s 100 nM-1 μM (++), IC50s 1-10 μM (+), IC50s >10 μM (−), or were not determined (ND).

T1 sequence (Q14145 321-609): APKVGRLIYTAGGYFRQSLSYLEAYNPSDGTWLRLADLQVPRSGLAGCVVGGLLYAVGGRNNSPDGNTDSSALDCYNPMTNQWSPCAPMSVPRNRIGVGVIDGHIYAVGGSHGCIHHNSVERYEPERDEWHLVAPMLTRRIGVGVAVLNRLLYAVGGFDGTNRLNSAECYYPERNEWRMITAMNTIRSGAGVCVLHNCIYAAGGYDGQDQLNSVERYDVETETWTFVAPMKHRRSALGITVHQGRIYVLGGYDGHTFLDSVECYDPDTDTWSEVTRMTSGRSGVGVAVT

For `C[C@H]1Cc2ccc(C(F)(F)F)cc2S(=O)(=O)N(C2CCc3c2cccc3-n2ccc(C(=O)O)c2C2CC2)C1` (mixture of isomers) [Example 12, 2-Cyclopropyl-1-(1-((S)-4-methyl-1,1-dioxido-8-(trifluoromethyl)-4,5-dihydrobenzo[f][1,2]thiazepin-2(3H)-yl)-2,3-dihydro-1H-inden-4-yl)-1H-pyrrole-3-carboxylic acid], the concentration giving a half-maximal response (EC50) lay in the range of 1 to 10 µM.

Take `C[C@H]1Cc2ccc(C(F)(F)F)cc2S(=O)(=O)N(Cc2cccc(-n3ccc(C(=O)O)c3[C@@H]3C[C@H]3c3cn(C)nn3)c2)C1` (racemic) [Example 1, 1-(3-(((S)-4-Methyl-1,1-dioxido-8-(trifluoromethyl)-4,5-dihydrobenzo[f]-[1,2]thiazepin-2(3H)-yl)methyl)phenyl)-2-(trans-2-(1-methyl-1H-1,2,3-triazol-4-yl)cyclopropyl)-1H-pyrrole-3-carboxylic acid]: the EC50 lay within 0.01 to 0.1 µM.

Take `C[C@H]1Cc2cc(C(F)(F)F)ccc2S(=O)(=O)N(Cc2cccc(-n3ccc(C(=O)O)c3[C@@H]3C[C@H]3c3cn(C)nn3)c2)C1` (racemic) [Example 2, 1-(3-(((S)-4-methyl-1,1-dioxido-7-(trifluoromethyl)-4,5-dihydrobenzo[f][1,2]thiazepin-2(3H)-yl)methyl)phenyl)-2-(trans-2-(1-methyl-1H-1,2,3-triazol-4-yl)cyclopropyl)-1H-pyrrole-3-carboxylic acid]: the half-maximal effective concentration (EC50) was in the range of 0.01 to 0.1 µM.

For the compound `Cc1c(CN2C[C@@H](C)Cc3ccc(C(F)(F)F)cc3S2(=O)=O)cccc1-n1ccc(C(=O)O)c1[C@@H]1C[C@H]1c1cn(C)nn1` (racemic) [Example 10, rac-2-(trans-2-(1-methyl-1H-1,2,3-triazol-4-yl)cyclopropyl)-1-(2-methyl-3-(((S)-4-methyl-1,1-dioxido-8-(trifluoromethyl)-4,5-dihydrobenzo[f][1,2]thiazepin-2(3H)-yl)methyl)phenyl)-1H-pyrrole-3-carboxylic acid], the EC50 was 0.1 to 1 µM.

The compound `Cc1ccc(CN2C[C@@H](C)Cc3ccc(C(F)(F)F)cc3S2(=O)=O)cc1-n1ccc(C(=O)O)c1[C@@H]1C[C@H]1c1cn(C)nn1` (racemic) [Example 11, rac-2-(trans-2-(1-methyl-1H-1,2,3-triazol-4-yl)cyclopropyl)-1-(2-methyl-5-(((S)-4-methyl-1,1-dioxido-8-(trifluoromethyl)-4,5-dihydrobenzo[f][1,2]thiazepin-2(3H)-yl)methyl)phenyl)-1H-pyrrole-3-carboxylic acid] had an EC50 of 0.1 to 1 µM.

Regarding `C[C@H](Oc1cccc(-c2cccc(-n3ccc(C(=O)O)c3[C@@H]3C[C@H]3c3cn(C)nn3)c2)c1)C1CCCCC1` (racemic) [Example 13, 1-(3′-((S)-1-Cyclohexylethoxy)-[1,1′-biphenyl]-3-yl)-2-(trans-2-(1-methyl-1H-1,2,3-triazol-4-yl)cyclopropyl)-1H-pyrrole-3-carboxylic acid], the EC50 fell in the range of 0.01 to 0.1 µM.

Turning to `CCC[C@@H]1CCCCN1C(=O)c1cccc(-c2cccc(-n3ccc(C(=O)O)c3[C@@H]3C[C@H]3c3cn(C)nn3)c2)c1` (racemic) [Example 14, 2-(trans-2-(1-methyl-1H-1,2,3-triazol-4-yl)cyclopropyl)-1-(3′-((R)-2-propylpiperidine-1-carbonyl)-[1,1′-biphenyl]-3-yl)-1H-pyrrole-3-carboxylic acid], the concentration giving a half-maximal response (EC50) is 0.01 to 0.1 µM.

For the compound `CCC[C@@H]1CCCCN1C(=O)c1cccc(-c2cccc(-n3ccc(C(=O)O)c3[C@@H]3C[C@H]3c3cn(C)nn3)c2)c1F` (racemic) [Example 15, 1-(2′-fluoro-3′-((R)-2-propylpiperidine-1-carbonyl)-[1,1′-biphenyl]-3-yl)-2-(trans-2-(1-methyl-1H-1,2,3-triazol-4-yl)cyclopropyl)-1H-pyrrole-3-carboxylic acid], the concentration for a half-maximal effect (EC50) lay within 0.01 to 0.1 µM.

The compound `Cn1cc([C@@H]2C[C@H]2c2c(C(=O)O)ccn2-c2cccc(CN3Cc4cc(F)ccc4OC(C)(C)C3)c2)nn1` (racemic) [Example 19] displayed a concentration for a half-maximal effect (EC50) of 0.01 to 0.1 µM.

For the compound `Cn1cc([C@@H]2C[C@H]2c2c(C(=O)O)ccn2-c2cccc(CN3Cc4cc(Br)ccc4OC(C)(C)C3)c2)nn1` (racemic) [Example 20], the EC50 was 0.01 to 0.1 µM.

For `Cn1cc([C@@H]2C[C@H]2c2c(C(=O)O)ccn2-c2cccc(CN3Cc4ccccc4CC(C)(C)C3)c2)nn1` (racemic) [Example 21], the half-maximal effective concentration (EC50) fell in the range of 0.01 to 0.1 µM.

In the case of `CCCC[C@H]1Cc2ccccc2S(=O)(=O)N(Cc2cccc(-n3ccc(C(=O)O)c3[C@@H]3C[C@H]3c3cn(C)nn3)c2)C1` [Example 3, 1-(3-(((S)-4-butyl-1,1-dioxido-4,5-dihydrobenzo[f][1,2]thiazepin-2(3H)-yl)methyl)phenyl)-2-((1R,2R)-2-(1-methyl-1H-1,2,3-triazol-4-yl)cyclopropyl)-1H-pyrrole-3-carboxylic acid], the half-maximal effective concentration (EC50) lay in the range of 0.01 to 0.1 µM.

`CCCC[C@H]1Cc2ccc(C(F)(F)F)cc2S(=O)(=O)N(Cc2cccc(-n3ccc(C(=O)O)c3[C@@H]3C[C@H]3c3cn(C)nn3)c2)C1` [Example 6, 1-(3-(((S)-4-butyl-1,1-dioxido-8-(trifluoromethyl)-4,5-dihydrobenzo[f][1,2]thiazepin-2(3H)-yl)methyl)phenyl)-2-((1R,2R)-2-(1-methyl-1H-1,2,3-triazol-4-yl)cyclopropyl)-1H-pyrrole-3-carboxylic acid]: the EC50 was 0.01 to 0.1 µM.

In turn, `CC[C@H]1Cc2cc(C(F)(F)F)ccc2S(=O)(=O)N(Cc2cccc(-n3ccc(C(=O)O)c3[C@@H]3C[C@H]3c3cn(C)nn3)c2)C1` [Example 7, 1-(3-(((S)-4-ethyl-1,1-dioxido-7-(trifluoromethyl)-4,5-dihydrobenzo[f][1,2]thiazepin-2(3H)-yl)methyl)phenyl)-2-((1R,2R)-2-(1-methyl-1H-1,2,3-triazol-4-yl)cyclopropyl)-1H-pyrrole-3-carboxylic acid] had an EC50 of 0.01 to 0.1 µM.

In turn, `C[C@H]1Cc2ccc(Br)cc2S(=O)(=O)N(Cc2cccc(-n3ccc(C(=O)O)c3[C@@H]3C[C@H]3c3cn(C)nn3)c2)C1` [Example 8, 1-(3-(((S)-8-bromo-4-methyl-1,1-dioxido-4,5-dihydrobenzo[f][1,2]thiazepin-2(3H)-yl)methyl)phenyl)-2-((1R,2R)-2-(1-methyl-1H-1,2,3-triazol-4-yl)cyclopropyl)-1H-pyrrole-3-carboxylic acid] registered a 50% effective concentration (EC50) of 0.01 to 0.1 µM.

`CC[C@H]1Cc2ccc(Br)cc2S(=O)(=O)N(Cc2cccc(-n3ccc(C(=O)O)c3[C@@H]3C[C@H]3c3cn(C)nn3)c2)C1` [Example 9, 1-(3-(((S)-8-bromo-4-ethyl-1,1-dioxido-4,5-dihydrobenzo[f][1,2]thiazepin-2(3H)-yl)methyl)phenyl)-2-((1R,2R)-2-(1-methyl-1H-1,2,3-triazol-4-yl)cyclopropyl)-1H-pyrrole-3-carboxylic acid] displayed a 50% effective concentration (EC50) of 0.01 to 0.1 µM.

On to `C[C@H](Oc1cccc(-c2cccc(-n3ccc(C(=O)O)c3[C@H]3C[C@@H]3c3cn(C)nn3)c2)c1)C1CCCCC1` [Example 17, 1-(3′-((S)-1-cyclohexylethoxy)-[1,1′-biphenyl]-3-yl)-2-((1S,2S)-2-(1-methyl-1H-1,2,3-triazol-4-yl)cyclopropyl)-1H-pyrrole-3-carboxylic acid], for which the concentration giving a half-maximal response (EC50) lay within 0.01 to 0.1 µM.

In turn, `CCC[C@@H]1CCCCN1C(=O)c1cccc(-c2cccc(-n3ccc(C(=O)O)c3[C@@H]3C[C@H]3c3cn(C)nn3)c2)c1Br` [Example 22] showed an EC50 of 0.01 to 0.1 µM.

`CCC[C@@H]1CCCCN1C(=O)c1cc(F)cc(-c2cccc(-n3ccc(C(=O)O)c3[C@@H]3C[C@H]3c3cn(C)nn3)c2)c1` [Example 23] showed an EC50 of 0.01 to 0.1 µM.

Compound `CCC[C@@H]1CCCCN1C(=O)c1cccc(-c2cccc(-n3ccc(C(=O)O)c3[C@@H]3C[C@H]3c3cn(C)nn3)c2)c1C(F)(F)F` [Example 24] showed an EC50 of 0.1 to 1 µM.

The term EC50 denotes the concentration giving half of the maximal effect. Higher therefore signals weaker potency.
